Active and inactive are the calls of the source.
How the values were obtained:
[1] = target: T1, Sphingosine 1-phosphate receptor 4 (Homo sapiens, UniProt O95977); test: Late stage fluorescence dose response cell-based screening assay for antagonists of the Sphingosine 1-Phosphate Receptor 4 (S1P4). [Related pubchem assays: 1524 (Confirmation screen (S1P4 antagonists).), 1510 (Primary screen (S1P4 antagonists).), 1853 (Summary AID (S1P4 antagonists).), 1692 (Dose response screen (S1P4 antagonists).)]; assay type: functional
T1 sequence (O95977 whole entry): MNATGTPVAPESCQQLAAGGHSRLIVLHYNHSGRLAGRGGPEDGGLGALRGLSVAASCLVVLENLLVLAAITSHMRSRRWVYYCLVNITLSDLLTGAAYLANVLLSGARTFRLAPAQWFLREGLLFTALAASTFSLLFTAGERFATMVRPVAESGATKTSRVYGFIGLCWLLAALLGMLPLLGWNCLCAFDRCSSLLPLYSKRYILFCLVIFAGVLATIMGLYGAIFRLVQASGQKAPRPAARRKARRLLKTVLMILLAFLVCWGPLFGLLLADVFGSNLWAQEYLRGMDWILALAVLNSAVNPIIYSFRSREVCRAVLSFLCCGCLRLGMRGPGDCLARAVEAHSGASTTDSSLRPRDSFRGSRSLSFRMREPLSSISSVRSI

Beta Lactamase = Beta Lactamase (Pseudomonas aeruginosa, UniProt Q932Y6); test: beta-lactamase reporter inhibitor potency, dose response, artefact control for NOD2-RIPK2 interaction inhibitor project, BLA reporter cells, FRET fluorescence (AID 651552); assay type: functional, cell-based
[2] = target: T1, Sphingosine 1-phosphate receptor 4; test: Fluorescence dose response cell-based high throughput screening assay for antagonists of the Sphingosine 1-Phosphate Receptor 4 (S1P4). [Related pubchem assays: 1524 (Confirmation in triplicates.), 1510 (Primary screen.)]; assay type: functional
[3] = Fluorescence-based cell-based high throughput dose response assay for inhibitors of the interaction of nucleotide-binding oligomerization domain containing 2 (NOD2) and the receptor-interacting serine-threonine kinase 2 (RIPK2).; assay type: functional; conditions: Homo sapiens
Fatty acid synthase [4] = target: T2, Fatty acid synthase (Homo sapiens, UniProt P49327); test: FAS thioesterase domain inhibitors, dose response, biochemical, kinetic fluorescence intensity (AID 624326); assay type: functional;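 note: rate of fluorescence rise from hydrolysis of a fluorogenic O-methyl fluorescein ester substrate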
[5] = target: T3, Replicative DNA helicase DnaB (Mycobacterium tuberculosis, UniProt P9WMR3); test: DnaB intein splicing inhibitors, dose response, biochemical, cell-free fluorescence (AID 449749); assay type: functional
T3 sequence (P9WMR3 whole entry): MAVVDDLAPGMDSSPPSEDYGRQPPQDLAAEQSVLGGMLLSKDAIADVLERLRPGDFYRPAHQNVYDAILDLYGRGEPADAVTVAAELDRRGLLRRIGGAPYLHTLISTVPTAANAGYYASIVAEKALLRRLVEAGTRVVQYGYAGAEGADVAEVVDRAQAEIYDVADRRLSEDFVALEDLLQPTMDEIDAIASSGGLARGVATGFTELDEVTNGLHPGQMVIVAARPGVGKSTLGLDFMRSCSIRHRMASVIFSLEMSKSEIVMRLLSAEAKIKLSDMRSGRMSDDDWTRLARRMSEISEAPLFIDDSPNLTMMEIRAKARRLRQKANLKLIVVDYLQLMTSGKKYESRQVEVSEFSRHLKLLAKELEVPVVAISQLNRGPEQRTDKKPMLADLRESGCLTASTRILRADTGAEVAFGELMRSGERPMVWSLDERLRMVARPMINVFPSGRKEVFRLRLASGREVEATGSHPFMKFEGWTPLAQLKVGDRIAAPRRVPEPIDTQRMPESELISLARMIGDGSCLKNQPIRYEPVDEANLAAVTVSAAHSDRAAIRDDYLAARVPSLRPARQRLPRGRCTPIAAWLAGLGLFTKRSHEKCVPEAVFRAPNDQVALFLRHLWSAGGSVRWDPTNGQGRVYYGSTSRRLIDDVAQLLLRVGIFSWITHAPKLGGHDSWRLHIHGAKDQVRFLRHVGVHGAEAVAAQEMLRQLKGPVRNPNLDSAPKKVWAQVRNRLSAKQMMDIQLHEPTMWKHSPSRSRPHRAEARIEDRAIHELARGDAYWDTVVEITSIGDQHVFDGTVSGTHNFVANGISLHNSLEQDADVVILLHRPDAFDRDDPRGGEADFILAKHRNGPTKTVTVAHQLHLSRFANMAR

[6] = NIH-3T3 fibroblast cytotoxicity, dose response, cytotoxicity control, cell-based, fluorescence, Alamar Blue, secondary assay (AID 2327); assay type: functional;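 note: NIH-3T3 mouse fibroblasts cultured with fluconazole at 8 µg/mL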
[7] = target: Heat shock protein HSP 90-alpha (Homo sapiens, UniProt P07900); assay type: functional, organism-based
Fatty acid synthase [8] = target: T2, Fatty acid synthase; test: FAS thioesterase domain inhibitors, dose response, biochemical, endpoint fluorescence intensity, uHTS hits (AID 624327); assay type: functional;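 note: fluorescence from hydrolysis of an O-methyl fluorescein acyl ester substrate by the enzyme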
Protein RecA = target: T4, Protein RecA (Mycobacterium tuberculosis, UniProt P9WHJ3); test: Fluorescence Cell-Free Homogeneous Dose Retest to Identify Inhibitors of RecA-Intein Splicing Activity. [Related pubchem assays (depositor defined):AID2097, AID2223, AID489010, AID492950]; assay type: functional
T4 sequence (P9WHJ3 whole entry): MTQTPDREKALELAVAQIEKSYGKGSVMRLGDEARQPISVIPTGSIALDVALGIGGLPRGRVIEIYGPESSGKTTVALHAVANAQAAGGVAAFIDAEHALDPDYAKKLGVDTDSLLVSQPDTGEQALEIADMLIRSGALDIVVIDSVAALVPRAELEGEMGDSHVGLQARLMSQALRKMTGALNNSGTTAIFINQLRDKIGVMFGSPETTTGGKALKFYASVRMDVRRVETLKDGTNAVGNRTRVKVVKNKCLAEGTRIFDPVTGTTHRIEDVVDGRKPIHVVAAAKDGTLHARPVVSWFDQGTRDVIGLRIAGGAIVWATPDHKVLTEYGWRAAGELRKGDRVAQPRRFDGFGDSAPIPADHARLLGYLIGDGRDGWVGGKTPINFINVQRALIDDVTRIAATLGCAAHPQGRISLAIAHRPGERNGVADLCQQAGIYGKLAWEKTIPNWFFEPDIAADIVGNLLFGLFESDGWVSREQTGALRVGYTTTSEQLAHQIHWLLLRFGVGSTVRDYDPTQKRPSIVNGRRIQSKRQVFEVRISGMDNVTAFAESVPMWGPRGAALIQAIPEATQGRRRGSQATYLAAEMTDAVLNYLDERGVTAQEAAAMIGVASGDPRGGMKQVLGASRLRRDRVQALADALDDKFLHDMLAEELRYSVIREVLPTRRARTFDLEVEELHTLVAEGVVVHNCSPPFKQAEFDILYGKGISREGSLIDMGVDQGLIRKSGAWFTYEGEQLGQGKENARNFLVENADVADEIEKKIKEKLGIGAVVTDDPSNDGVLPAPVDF

[9] = target: Sphingosine 1-phosphate receptor 1 (Homo sapiens, UniProt P21453); assay type: functional;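 note: Tango beta-arrestin reporter U2OS cells stimulated with S1P near its EC80; inhibitor potency meaning antagonism of receptor activation by the natural agonist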
[10] = HEp-2 cell cytotoxicity, dose response, cytotoxicity control for RSV inhibitor project, HTS (AID 2410); assay type: functional; conditions: human respiratory syncytial virus
[11] = C. albicans growth with fluconazole, confirmation, fluorescence, retest (AID 2467); assay type: functional, cell-based
Danio rerio = test: In Vivo Angiogenesis Dose-Response Confirmation. [Related pubchem assays: 732 (Assay preceding this confirmatory assay.)]; assay type: functional, organism-based
[12] = A cytotoxicity screen of small molecule inhibitors of the PhoP region in Salmonella typhi identified in the primary screen. [Related pubchem assays: 1850, 1864, 1985 ]; assay type: functional
[13] = M. tuberculosis H37Rv growth inhibitors, H37Rv strain (AID 1626); assay type: functional
[14] = target: T5, Polyadenylate-binding protein 1 (Homo sapiens, UniProt P11940); test: PABP1 MLLE–PAM2 binding inhibitor potency, dose response, biochemical, fluorescence polarization, FITC-PAM2 peptide (AID 602259); assay type: functional; conditions: read-out: IC50_Mean
[15] = target: T5, Polyadenylate-binding protein 1; test: PABP1 MLLE–PAM2 interaction inhibitors, dose response, miRNA deadenylation inhibitor project, biochemical, fluorescence polarization, Cy5-PAM2 peptide, secondary (AID 602260); assay type: functional; conditions: read-out: IC50_Mean
[16] = target: Protein-tyrosine kinase 2-beta (Homo sapiens, UniProt Q14289);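 note: potency of inhibitors of PYK2 kinase phosphorylation of poly-GT substrate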
Sequence of Protein-tyrosine kinase 2-beta (Q14289 whole entry): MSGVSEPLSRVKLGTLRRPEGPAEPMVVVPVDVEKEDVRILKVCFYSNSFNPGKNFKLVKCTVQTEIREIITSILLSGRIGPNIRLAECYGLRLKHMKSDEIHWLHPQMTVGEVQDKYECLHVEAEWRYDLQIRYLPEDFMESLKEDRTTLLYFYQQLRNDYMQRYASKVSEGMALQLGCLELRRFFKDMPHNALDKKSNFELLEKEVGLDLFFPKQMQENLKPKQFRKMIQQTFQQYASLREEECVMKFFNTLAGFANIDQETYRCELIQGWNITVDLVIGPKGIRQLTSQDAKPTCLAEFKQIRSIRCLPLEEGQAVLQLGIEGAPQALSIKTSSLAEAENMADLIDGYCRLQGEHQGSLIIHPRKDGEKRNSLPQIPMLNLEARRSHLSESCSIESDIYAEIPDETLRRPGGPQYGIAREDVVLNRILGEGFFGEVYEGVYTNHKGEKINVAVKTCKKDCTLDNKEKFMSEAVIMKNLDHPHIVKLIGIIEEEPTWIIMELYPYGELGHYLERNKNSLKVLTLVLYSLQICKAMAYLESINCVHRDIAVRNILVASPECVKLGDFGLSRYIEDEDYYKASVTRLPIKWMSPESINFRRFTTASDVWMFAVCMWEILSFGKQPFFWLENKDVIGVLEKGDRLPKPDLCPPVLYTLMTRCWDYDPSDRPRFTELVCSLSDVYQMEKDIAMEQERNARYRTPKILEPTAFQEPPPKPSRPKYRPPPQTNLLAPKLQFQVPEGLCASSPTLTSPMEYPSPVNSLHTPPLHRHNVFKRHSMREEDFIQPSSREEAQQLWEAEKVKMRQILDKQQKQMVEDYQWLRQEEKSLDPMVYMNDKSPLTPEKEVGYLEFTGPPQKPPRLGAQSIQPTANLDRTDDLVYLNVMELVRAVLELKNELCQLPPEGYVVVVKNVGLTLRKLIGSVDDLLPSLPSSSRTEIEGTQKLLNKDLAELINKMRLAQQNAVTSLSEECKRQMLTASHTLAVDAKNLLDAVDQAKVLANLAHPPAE

T5 sequence (P11940 whole entry): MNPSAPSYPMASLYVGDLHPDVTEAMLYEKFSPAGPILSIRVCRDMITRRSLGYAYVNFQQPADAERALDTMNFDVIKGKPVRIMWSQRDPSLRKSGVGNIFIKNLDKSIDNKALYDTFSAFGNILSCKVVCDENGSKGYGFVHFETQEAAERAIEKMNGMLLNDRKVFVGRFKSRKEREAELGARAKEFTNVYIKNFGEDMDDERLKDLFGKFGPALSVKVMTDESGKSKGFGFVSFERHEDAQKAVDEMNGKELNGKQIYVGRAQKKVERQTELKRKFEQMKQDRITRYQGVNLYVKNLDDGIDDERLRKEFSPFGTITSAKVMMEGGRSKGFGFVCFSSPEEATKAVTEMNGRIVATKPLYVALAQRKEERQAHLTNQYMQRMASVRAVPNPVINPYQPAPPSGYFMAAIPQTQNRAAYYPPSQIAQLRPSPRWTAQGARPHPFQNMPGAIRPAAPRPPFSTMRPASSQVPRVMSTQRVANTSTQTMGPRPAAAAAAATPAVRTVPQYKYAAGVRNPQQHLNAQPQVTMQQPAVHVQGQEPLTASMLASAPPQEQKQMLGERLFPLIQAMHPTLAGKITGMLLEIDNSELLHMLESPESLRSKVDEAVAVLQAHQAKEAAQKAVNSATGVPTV
T2 sequence (P49327 whole entry, the tested form may be a part): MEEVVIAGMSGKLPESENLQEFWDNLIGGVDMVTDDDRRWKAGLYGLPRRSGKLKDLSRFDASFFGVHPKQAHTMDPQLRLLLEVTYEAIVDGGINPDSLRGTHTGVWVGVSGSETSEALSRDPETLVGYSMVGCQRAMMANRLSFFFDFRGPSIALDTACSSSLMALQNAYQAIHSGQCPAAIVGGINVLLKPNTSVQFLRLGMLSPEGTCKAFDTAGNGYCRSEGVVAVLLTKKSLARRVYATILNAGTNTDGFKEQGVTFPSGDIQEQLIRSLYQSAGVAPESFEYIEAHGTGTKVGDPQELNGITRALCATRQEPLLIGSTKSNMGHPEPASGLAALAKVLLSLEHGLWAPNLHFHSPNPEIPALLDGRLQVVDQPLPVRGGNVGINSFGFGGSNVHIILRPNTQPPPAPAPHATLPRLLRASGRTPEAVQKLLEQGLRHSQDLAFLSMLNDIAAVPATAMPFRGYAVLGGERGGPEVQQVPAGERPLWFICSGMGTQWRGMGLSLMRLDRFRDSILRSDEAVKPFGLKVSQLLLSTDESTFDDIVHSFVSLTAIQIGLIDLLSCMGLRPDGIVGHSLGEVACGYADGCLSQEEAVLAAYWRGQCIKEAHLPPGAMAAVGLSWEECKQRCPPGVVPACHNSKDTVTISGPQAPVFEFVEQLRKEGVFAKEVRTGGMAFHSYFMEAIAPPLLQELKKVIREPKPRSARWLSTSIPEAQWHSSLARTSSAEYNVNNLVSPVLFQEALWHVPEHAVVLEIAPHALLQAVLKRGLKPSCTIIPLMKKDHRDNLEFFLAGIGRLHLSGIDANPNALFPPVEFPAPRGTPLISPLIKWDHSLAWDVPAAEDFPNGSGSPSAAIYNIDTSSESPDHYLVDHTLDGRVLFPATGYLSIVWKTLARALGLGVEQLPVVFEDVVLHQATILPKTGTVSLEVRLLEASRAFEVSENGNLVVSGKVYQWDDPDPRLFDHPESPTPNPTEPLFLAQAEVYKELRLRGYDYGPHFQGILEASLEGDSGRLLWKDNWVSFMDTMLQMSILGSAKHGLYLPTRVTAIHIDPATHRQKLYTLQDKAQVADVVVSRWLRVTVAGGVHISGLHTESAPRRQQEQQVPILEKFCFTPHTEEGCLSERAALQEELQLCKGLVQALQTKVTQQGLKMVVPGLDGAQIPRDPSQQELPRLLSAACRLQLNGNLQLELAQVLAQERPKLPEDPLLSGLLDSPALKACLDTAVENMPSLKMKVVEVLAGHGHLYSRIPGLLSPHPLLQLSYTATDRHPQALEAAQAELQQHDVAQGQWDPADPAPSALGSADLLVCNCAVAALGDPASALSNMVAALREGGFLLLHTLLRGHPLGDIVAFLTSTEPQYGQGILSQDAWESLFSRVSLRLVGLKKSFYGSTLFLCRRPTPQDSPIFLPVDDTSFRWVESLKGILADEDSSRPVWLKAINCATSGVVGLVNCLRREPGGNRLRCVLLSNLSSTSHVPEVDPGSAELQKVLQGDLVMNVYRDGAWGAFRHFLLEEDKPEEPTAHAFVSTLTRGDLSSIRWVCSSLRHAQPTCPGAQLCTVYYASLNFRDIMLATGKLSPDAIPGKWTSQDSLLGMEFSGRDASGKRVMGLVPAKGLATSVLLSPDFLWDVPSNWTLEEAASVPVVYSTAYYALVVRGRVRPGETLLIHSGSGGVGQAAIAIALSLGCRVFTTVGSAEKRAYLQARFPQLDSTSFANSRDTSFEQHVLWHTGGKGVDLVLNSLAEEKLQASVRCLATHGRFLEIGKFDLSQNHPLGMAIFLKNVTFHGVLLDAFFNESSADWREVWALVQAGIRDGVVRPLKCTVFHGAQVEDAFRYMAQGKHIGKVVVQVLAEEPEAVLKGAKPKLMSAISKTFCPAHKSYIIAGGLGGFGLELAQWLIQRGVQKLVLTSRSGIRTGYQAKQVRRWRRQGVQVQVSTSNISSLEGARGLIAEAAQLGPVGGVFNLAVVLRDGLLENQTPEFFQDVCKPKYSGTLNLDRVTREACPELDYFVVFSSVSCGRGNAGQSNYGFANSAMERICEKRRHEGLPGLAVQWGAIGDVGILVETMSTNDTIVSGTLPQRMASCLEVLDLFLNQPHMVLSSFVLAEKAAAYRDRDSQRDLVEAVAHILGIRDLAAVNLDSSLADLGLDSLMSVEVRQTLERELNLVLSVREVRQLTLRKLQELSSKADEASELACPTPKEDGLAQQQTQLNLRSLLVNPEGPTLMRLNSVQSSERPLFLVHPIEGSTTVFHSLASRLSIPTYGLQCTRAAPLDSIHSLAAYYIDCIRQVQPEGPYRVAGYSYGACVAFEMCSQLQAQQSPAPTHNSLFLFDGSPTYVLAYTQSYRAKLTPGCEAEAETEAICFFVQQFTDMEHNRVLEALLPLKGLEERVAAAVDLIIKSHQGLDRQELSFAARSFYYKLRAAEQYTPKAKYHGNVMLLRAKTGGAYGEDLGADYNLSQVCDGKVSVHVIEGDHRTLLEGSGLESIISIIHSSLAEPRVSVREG
Sequence of Sphingosine 1-phosphate receptor 1 (P21453 whole entry): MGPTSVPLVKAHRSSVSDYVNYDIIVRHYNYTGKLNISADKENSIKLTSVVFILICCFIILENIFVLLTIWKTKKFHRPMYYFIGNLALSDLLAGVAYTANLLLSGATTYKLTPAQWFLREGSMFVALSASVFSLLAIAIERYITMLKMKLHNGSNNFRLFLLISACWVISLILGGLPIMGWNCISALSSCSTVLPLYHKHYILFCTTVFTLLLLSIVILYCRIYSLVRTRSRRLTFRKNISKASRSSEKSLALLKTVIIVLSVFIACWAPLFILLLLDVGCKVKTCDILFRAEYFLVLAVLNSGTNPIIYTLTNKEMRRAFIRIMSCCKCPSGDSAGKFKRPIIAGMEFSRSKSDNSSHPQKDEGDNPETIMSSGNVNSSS
Sequence of Beta Lactamase (Q932Y6 whole entry): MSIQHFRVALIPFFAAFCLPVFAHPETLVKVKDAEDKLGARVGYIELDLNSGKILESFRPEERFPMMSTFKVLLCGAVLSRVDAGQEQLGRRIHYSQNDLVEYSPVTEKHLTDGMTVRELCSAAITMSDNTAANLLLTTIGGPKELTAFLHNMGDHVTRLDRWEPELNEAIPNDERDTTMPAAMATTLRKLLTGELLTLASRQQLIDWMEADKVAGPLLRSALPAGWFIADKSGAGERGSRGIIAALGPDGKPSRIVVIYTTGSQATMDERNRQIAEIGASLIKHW

In the case of `O=C(Nc1ccccc1)c1nnsc1S(=O)(=O)c1ccc(Cl)cc1`, the IC50 [1] is reported as 11.2 µM (not active), the IC50 (Beta Lactamase) is reported as 18.8 µM (inactive) and the IC50 [2] is reported as 1.04 µM (active). For the same compound, the IC50 [3] was 3.5 µM (active), the IC50 (Fatty acid synthase [4]) was 5.14 µM (active) and the AC50 [5] was 3.53 µM (active). For the same compound, the EC50 [6] was 9.03 µM (active), the AC50 [7] was 0.293 µM (active) and the IC50 (Fatty acid synthase [8]) was 8 µM (active). For the same compound, the EC50 (Protein RecA) was 5.71 µM (active), the IC50 [9] was 23.4 µM (not active) and the CC50 [10] was 13.4 µM (active). The EC50 [11] was > 38 µM (not active).
In the case of `Cc1ccc2c(c1)/C(=C1/Nc3ccc(Br)cc3/C1=N\OCCN1CCNCC1)C(=O)N2`, the IC50 (Danio rerio) is reported as 3.28 µM (not active).
With `Cc1cc(C(=O)Cn2cncn2)c(C)n1CCc1ccc(F)cc1` the EC50 [12] was > 50 µM (active) and the IC50 [13] was > 100 µM (active).
For `CCOC(=O)CSc1nc(C2CC2)nc2ccccc12`, the IC50 [14] was > 66 µM (inactive), the IC50 [15] was > 66 µM (inactive) and the IC50 [16] was > 69.5 µM (not active).

— ChEMBL document CHEMBL1201862, “PubChem BioAssay data set” (2004)
